In US20050084612A1, “Surface coating for microfluidic devices that incorporate a biopolymer resistant moiety” (Caliper Life Sciences, Inc., priority 1999, published 2005):

Target: T1, PTP1b (Homo sapiens, UniProt P18031)
T1 sequence (P18031 1-435): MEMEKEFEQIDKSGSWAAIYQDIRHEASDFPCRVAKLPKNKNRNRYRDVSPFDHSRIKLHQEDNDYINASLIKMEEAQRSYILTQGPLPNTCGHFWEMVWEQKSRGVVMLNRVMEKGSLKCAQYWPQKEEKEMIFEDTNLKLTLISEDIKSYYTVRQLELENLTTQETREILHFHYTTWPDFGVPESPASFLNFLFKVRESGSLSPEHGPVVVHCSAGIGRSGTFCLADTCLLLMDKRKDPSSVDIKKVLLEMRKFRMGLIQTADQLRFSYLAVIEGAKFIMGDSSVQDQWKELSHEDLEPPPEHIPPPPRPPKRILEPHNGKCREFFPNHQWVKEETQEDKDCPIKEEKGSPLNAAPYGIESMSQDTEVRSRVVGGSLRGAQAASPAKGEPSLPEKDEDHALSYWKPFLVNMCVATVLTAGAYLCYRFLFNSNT
Assay: PTP1b/diFMUP Km measurement by substrate titration in microfluidic device
Type: biochemical
Conditions: read-out: Km PTP1b/diFMUP; PEI-2 coated device, no NDSB, 50 mM HEPES+10 mM DTT
Method: A 0.1 mg/ml PTP1b solution (12 μl) was placed in well 8. […] The fluorescence signal is detected at the end of the main channel.
The first 5 steps are substrate-only titrations using well 2 and well 3, with buffer flow from well 1. These provide measurements of the substrate background signal. The next 5 steps are the same substrate titration steps, but with enzyme flowing from well 8. The difference between these signals and the substrate-only background signal is product signal. […] The final concentration of the substrate was calculated from the known well concentration and the ratio of currents as programmed in the script. Plotting 1/(product signal per unit time) vs. 1/(substrate concentration) yields the Lineweaver-Burk plot with Km equal to slope divided by the y-intercept.
The final substrate concentration was calculated from Equation 4.

- Km: 3 µM
SMILES: Cc1cc(=O)oc2c(F)c(OP(=O)(O)O)c(F)cc12 [diFMUP, di-6-a-difluoro-4-methylumbelliferyl phosphate]
